Source: US6737383B1, “Herbicidal oxadiazolidines” (priority 1999, dated 2004)

What was measured:
[1] = tested on: bamyardgrass; assay: Test B flood test barnyardgrass; format: in vivo, Echinochloa crus-galli
In short: (§1)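 Flood test on plants grown to the 2-leaf stage; treated plants kept in greenhouse twelve to sixteen days, then visually rated against controls on a 0 (no effect) to 10 (complete control) scale.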

[2] = tested on: rape; assay: Test B pre/postemergence rape; format: in vivo, Brassica napus
In short: (§2)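 Herbicidal effect was estimated by eye on a ten-point control scale after plants spent twelve to sixteen days in a greenhouse following soil or foliar treatment. Foliar sprays targeted plants at one to four leaves; all doses were formulated in a non-phytotoxic solvent with surfactant.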

[3] = tested on: sugar beet; assay: Test B pre/postemergence sugar beet; format: in vivo, Beta vulgaris
In short: as §2

[4] = tested on: soybean; assay: Test B pre/postemergence soybean; format: in vivo, Glycine max
In short: as §2

[5] = tested on: purple nutsedge; assay: Test B pre/postemergence purple nutsedge; format: in vivo, Cyperus rotundus
In short: as §2

[6] = tested on: wheat; assay: Test B pre/postemergence wheat; format: in vivo, Triticum aestivum
In short: as §2

[7] = tested on: smallflower flatsedge; assay: Test B flood test smallflower flatsedge; format: in vivo, Cyperus difformis; conditions: for S. Flatsedge plant response rating: Postemergence section (flood test species)
In short: as §1

[8] = tested on: crabgrass; assay: Test B pre/postemergence crabgrass; format: in vivo, Digitaria sanguinalis
In short: as §2

[9] = tested on: cocklebur; assay: Test B pre/postemergence cocklebur; format: in vivo, Xanthium strumarium
In short: as §2

[10] = tested on: surinam grass; assay: Test B pre/postemergence surinam grass; format: in vivo, Brachiaria decumbens
In short: as §2

[11] = tested on: corn; assay: Test B pre/postemergence corn; format: in vivo, Zea mays
In short: as §2

[12] = tested on: wild oat; assay: Test B pre/postemergence wild oat; format: in vivo, Avena fatua
In short: as §2

[13] = tested on: blackgrass; assay: Test B pre/postemergence blackgrass; format: in vivo, Alopecurus myosuroides
In short: as §2

[14] = tested on: velvetleaf; assay: Test B pre/postemergence velvetleaf; format: in vivo, Abutilon theophrasti
In short: as §2

[15] = tested on: pigweed; assay: Test B pre/postemergence pigweed; format: in vivo, Amaranthus retroflexus
In short: as §2

[16] = flood test species, listed under Postemergence, Rate 250 g/ha, scale 0 to 10, 0 is no effect, 10 is complete control
[17] = Postemergence, Rate 250 g/ha, scale 0 to 10, 0 is no effect, 10 is complete control
[18] = Postemergence, Rate 500 g/ha, scale of 0 to 10 where 0 is no effect and 10 is complete control
[19] = Preemergence, Rate 62 g/ha, scale 0 to 10 (0 no effect, 10 complete control)
[20] = Preemergence, Rate 125 g/ha, scale of 0 to 10 where 0 is no effect and 10 is complete control
[21] = Preemergence, Rate 250 g/ha, scale 0 to 10, 0 is no effect, 10 is complete control
[22] = Preemergence, Rate 500 g/ha, scale 0 to 10, 0 is no effect, 10 is complete control
[23] = Rate 125 g/ha, Postemergence, scale 0 to 10, 0 is no effect, 10 is complete control
[24] = Rate 62 g/ha, Postemergence, scale of 0 to 10 where 0 is no effect and 10 is complete control
[25] = Preemergence, Rate 250 g/ha, scale of 0 to 10 where 0 is no effect and 10 is complete control

## CC(C)N(C(=O)n1oc(=O)n(CCl)c1=O)c1ccc(Cl)cc1 [Compound 422]
[1]; Postemergence section (flood test species), Rate 500 g/ha, scale of 0 to 10 where 0 is no effect and 10 is complete control
  Barnyardgrass plant response rating: 0
[1]; Rate 62 g/ha, Postemergence (flood test species), scale of 0 to 10 where 0 is no effect and 10 is complete control
  Barnyardgrass plant response rating: 0
[1]; Rate 125 g/ha, Postemergence section (flood test species), scale 0 to 10, 0 is no effect, 10 is complete control
  Barnyardgrass plant response rating: 0
[1]; [16]
  Plant response rating, Barnyardgrass: 0
[2]; [17]
  Plant response rating, Rape: 0
[2]; [18]
  Rape plant response rating: 0
[2]; [19]
  Plant response rating, Rape: 0
[2]; [20]
  Plant response rating, Rape: 0
[2]; [21]
  Rape plant response rating: 0
[2]; [22]
  Rape plant response rating: 0
[2]; [23]
  Rape plant response rating: 0
[3]; [17]
  Plant response rating, Sugarbeets: 0
[3]; [18]
  Sugarbeets plant response rating: 0
[3]; [19]
  Plant response rating, Sugarbeets: 0
[3]; [20]
  Plant response rating, Sugarbeets: 0
[3]; [21]
  Sugarbeets plant response rating: 0
[3]; [22]
  Sugarbeets plant response rating: 0
[3]; [23]
  Sugarbeets plant response rating: 0
[4]; [17]
  Plant response rating, Soybean: 3
[4]; [18]
  Soybean plant response rating: 4
[4]; [19]
  Plant response rating, Soybean: 0
[4]; [20]
  Plant response rating, Soybean: 0
[4]; [21]
  Soybean plant response rating: 0
[4]; [22]
  Soybean plant response rating: 0
[4]; [23]
  Soybean plant response rating: 3
[5]; [17]
  Plant response rating, Nutsedge: 0
[5]; [18]
  Nutsedge plant response rating: 0
[5]; [19]
  Plant response rating, Nutsedge: 0
[5]; [20]
  Plant response rating, Nutsedge: 0
[5]; [21]
  Nutsedge plant response rating: 0
[5]; [22]
  Nutsedge plant response rating: 0
[5]; [23]
  Nutsedge plant response rating: 0
[6]; [18]
  Wheat plant response rating: 0
[6]; [19]
  Plant response rating, Wheat: 0
[6]; [20]
  Plant response rating, Wheat: 0
[6]; [21]
  Wheat plant response rating: 0
[6]; [22]
  Wheat plant response rating: 0
[6]; [23]
  Wheat plant response rating: 0
[7]; Rate 500 g/ha, scale of 0 to 10 where 0 is no effect and 10 is complete control
  S. Flatsedge plant response rating: 0
[7]; Rate 125 g/ha, scale 0 to 10, 0 is no effect, 10 is complete control
  S. Flatsedge plant response rating: 0
[7]; [16]
  Plant response rating, S. Flatsedge: 0
[8]; [17]
  Plant response rating, Crabgrass: 0
[8]; [18]
  Crabgrass plant response rating: 0
[8]; [19]
  Plant response rating, Crabgrass: 0
[8]; [20]
  Plant response rating, Crabgrass: 0
[8]; [21]
  Crabgrass plant response rating: 0
[8]; [22]
  Crabgrass plant response rating: 0
[8]; [24]
  Crabgrass plant response rating: 0
[8]; [23]
  Crabgrass plant response rating: 0
[9]; [17]
  Plant response rating, Cocklebur: 0
[9]; [18]
  Cocklebur plant response rating: 0
[9]; [19]
  Plant response rating, Cocklebur: 0
[9]; [20]
  Plant response rating, Cocklebur: 0
[9]; [21]
  Cocklebur plant response rating: 0
[9]; [22]
  Cocklebur plant response rating: 0
[9]; [24]
  Cocklebur plant response rating: 0
[9]; [23]
  Cocklebur plant response rating: 0
[10]; [17]
  Plant response rating, B. signalgrass: 0
[10]; [18]
  B. signalgrass plant response rating: 0
[10]; [19]
  Plant response rating, B. signalgrass: 0
[10]; [20]
  Plant response rating, B. signalgrass: 0
[10]; [25]
  B. signalgrass plant response rating: 0
[10]; Preemergence, Rate 500 g/ha, scale of 0 to 10 where 0 is no effect and 10 is complete control
  B. signalgrass plant response rating: 0
[10]; [24]
  B. signalgrass plant response rating: 0
[10]; [23]
  B. signalgrass plant response rating: 0
[11]; [17]
  Plant response rating, Corn: 0
[11]; [18]
  Corn plant response rating: 0
[11]; [19]
  Plant response rating, Corn: 0
[11]; [20]
  Plant response rating, Corn: 0
[11]; [21]
  Corn plant response rating: 0
[11]; [22]
  Corn plant response rating: 0
[11]; [24]
  Corn plant response rating: 0
[11]; [23]
  Corn plant response rating: 0
[12]; [18]
  Wild oats plant response rating: 0
[12]; [19]
  Plant response rating, Wild oats: 0
[12]; [20]
  Plant response rating, Wild oats: 0
[12]; [21]
  Wild oats plant response rating: 0
[12]; [22]
  Wild oats plant response rating: 3
[12]; [23]
  Wild oats plant response rating: 0
[13]; [17]
  Plant response rating, Blackgrass: 0
[13]; [18]
  Blackgrass plant response rating: 0
[13]; [19]
  Plant response rating, Blackgrass: 0
[13]; [20]
  Plant response rating, Blackgrass: 0
[13]; [25]
  Blackgrass plant response rating: 0
[13]; [22]
  Blackgrass plant response rating: 0
[13]; [24]
  Blackgrass plant response rating: 0
[13]; [23]
  Blackgrass plant response rating: 0
[14]; [17]
  Plant response rating, Velvetleaf: 0
[14]; [18]
  Velvetleaf plant response rating: 0
[14]; [19]
  Plant response rating, Velvetleaf: 0
[14]; [20]
  Plant response rating, Velvetleaf: 0
[14]; [21]
  Velvetleaf plant response rating: 0
[14]; [22]
  Velvetleaf plant response rating: 0
[14]; [23]
  Velvetleaf plant response rating: 0
[15]; [17]
  Plant response rating, Redroot pigweed: 0
[15]; [18]
  Redroot pigweed plant response rating: 0
[15]; [19]
  Plant response rating, Redroot pigweed: 0
[15]; [20]
  Plant response rating, Redroot pigweed: 0
[15]; [21]
  Redroot pigweed plant response rating: 0
[15]; [22]
  Redroot pigweed plant response rating: 0
[15]; [23]
  Redroot pigweed plant response rating: 0
